Reference: patent US9901095B2, “Processes for the preparation of pesticidal compounds” (Dow AgroSciences LLC, priority 2013, dated 2018)

Experiments:
[1] = tested on: Green Peach Aphid (Myzus persicae) (MYZUPE); test: Bioassay on Green Peach Aphid (GPA), foliar spray on cabbage seedlings; assay type: in vivo; conditions: 200 ppm spray on cabbage seedlings; live aphids counted after three days; Abbott's correction
Protocol: Several molecules disclosed herein were tested against GPA using procedures described below.
Cabbage seedling grown in 3-in pots, with 2-3 small (3-5 cm) true leaves, were used as test substrate. The seedlings were infested with […] (wingless adult and nymph stages) one day prior to chemical application. Four pots with individual seedlings were used for each treatment. Test compounds (2 mg) were dissolved in 2 mL of acetone/methanol (1:1) solvent, forming stock solutions of 1000 ppm test compound. The stock solutions were diluted 5× with 0.025% Tween 20 in water to obtain the solution at 200 ppm test compound. A hand-held aspirator-type sprayer was used for spraying a solution to both sides of the cabbage leaves until runoff. Reference plants (solvent check) were sprayed with the diluent only containing 20% by volume acetone/methanol (1:1) solvent. Treated plants were held in a holding room for three days at approximately 25° C. and ambient relative humidity (RH) prior to grading. Evaluation was conducted by counting the number of live aphids per plant under a microscope. Percent Control was measured by using Abbott's correction formula (W. S. Abbott, “A Method of Computing the Effectiveness of an Insecticide” J. Econ. Entomol 18 (1925), pp. 265-267) as follows. Corrected % Control=100*(X−Y)/X
X=No. of live aphids on solvent check plants and
Y=No. of live aphids on treated plants
The results are indicated in the table entitled “Table 1: GPA (MYZUPE) and sweetpotato whitefly-crawler (BEMITA) Rating Table”.

[2] = tested on: Sweetpotato Whitefly Crawler (Bemisia tabaci) (BEMITA); test: Bioassay on Sweetpotato Whitefly Crawler, foliar spray on cotton plants; assay type: in vivo; conditions: 200 ppm spray on cotton plants; live nymphs counted after 8-9 days; Abbott's correction
Protocol: Cotton plants grown in 3-inch pots, with 1 small (3-5 cm) true leaf, were used at test substrate. The plants were placed in a room with whitely adults. Adults were allowed to deposit eggs for 2-3 days. After a 2-3 day egg-laying period, plants were taken from the adult whitefly room. Adults were blown off leaves using a hand-held Devilbliss sprayer (23 psi). Plants with egg infestation (100-300 eggs per plant) were placed in a holding room for 5-6 days at 82° F. and 50% RH for egg hatch and crawler stage to develop. Four cotton plants were used for each treatment. Compounds (2 mg) were dissolved in 1 mL of acetone solvent, forming stock solutions of 2000 ppm. The stock solutions were diluted 10× with 0.025% Tween 20 in water to obtain a test solution at 200 ppm. A hand-held Devilbliss sprayer was used for spraying a solution to both sides of cotton leaf until runoff. Reference plants (solvent check) were sprayed with the diluent only. Treated plants were held in a holding room for 8-9 days at approximately 82° F. and 50% RH prior to grading. Evaluation was conducted by counting the number of live nymphs per plant under a microscope.

Compound | MYZUPE rating (% Control of Mortality) [1] | BEMITA rating (% Control of Mortality) [2]
Cl.Nc1c[nH]nc1Cl [Compound 1a, 3-Chloro-1H-pyrazol-4-amine hydrochloride] | B (More than 0-Less than 80) | B (More than 0-Less than 80)
CC(=O)Nc1c[nH]nc1Cl [Compound 1b, N-(3-Chloro-1H-pyrazol-4-yl)acetamide] | B (More than 0-Less than 80) | B (More than 0-Less than 80)
CC(=O)Nc1cn(-c2cccnc2)nc1Cl [Compound 1c, N-(3-Chloro-1-(pyridin-3-yl)-1H-pyrazol-4-yl)acetamide] | B (More than 0-Less than 80) | B (More than 0-Less than 80)
CCNc1cn(-c2cccnc2)nc1Cl [Compound 1d, 3-Chloro-N-ethyl-1-(pyridin-3-yl)-1H-pyrazol-amine] | B (More than 0-Less than 80) | B (More than 0-Less than 80)
CCN(C(=O)CCCl)c1cn(-c2cccnc2)nc1Cl [Compound 2a, 3-Chloro-N-(3-chloro-1-(pyridin-3-yl)-1H-pyrazol-4-yl)-N-ethylpropanamide] | A (80-100) | A (80-100)
CCN(C(=O)CCSCCC(F)(F)F)c1cn(-c2cccnc2)nc1Cl [Compound 6.2, N-(3-Chloro-1-(pyridin-3-yl)-1H-pyrazol-4-yl)-N-ethyl-3-((3,3,3-trifluoropropyl)thio)propanamide] | A (80-100) | A (80-100)
CCN(C(=O)CC[S+]([O-])CCC(F)(F)F)c1cn(-c2cccnc2)nc1Cl (centres unmarked) [Compound 7.2, N-(3-Chloro-1-(pyridin-3-yl)-1H-pyrazol-4-yl)-N-ethyl-3-((3,3,3-trifluoropropyl)sulfoxo)propanamide] | A (80-100) | A (80-100)
